Here are results for 17 compounds from patent US20250122182A1 (Isosterix, Inc., priority 2023, published 2025).

The target of the experiment is Recombinant KAT6A/MOZ (488-778) protein (Homo sapiens (Human), UniProt Q92794). In words: KAT6A AlphaLISA Inhibition Screening Assay. Type of experiment: biochemical. To be noted: for inhibition at 1 µM: read-out: Average Kat6A % inhibition @ 1 μM; for inhibition at 1 µM / Average Kat6A % inhibition @ 1 μM: 1 μM test compound; for inhibition at 10 µM: read-out: Average Kat6A % inhibition @ 10 μM; for inhibition at 10 µM / Average Kat6A % inhibition @ 10 μM: 10 μM test compound. In outline:
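AlphaLISA read-out with anti-acetyl-lysine acceptor and streptavidin donor beads, % inhibition relative to vehicle. Reaction: biotinylated histone H3 1-21 (200 nM) and acetyl-CoA (400 nM) with KAT6A 488-778 (25 nM), 120 min at room temperature, pH 8.0, 330 nM TSA, after 60 or 10 min enzyme–compound pre-incubation; 10-point 3-fold series from 10 μM.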

Each structure is given as a SMILES string.

Chain of Recombinant KAT6A/MOZ (488-778) protein (Q92794 488-778): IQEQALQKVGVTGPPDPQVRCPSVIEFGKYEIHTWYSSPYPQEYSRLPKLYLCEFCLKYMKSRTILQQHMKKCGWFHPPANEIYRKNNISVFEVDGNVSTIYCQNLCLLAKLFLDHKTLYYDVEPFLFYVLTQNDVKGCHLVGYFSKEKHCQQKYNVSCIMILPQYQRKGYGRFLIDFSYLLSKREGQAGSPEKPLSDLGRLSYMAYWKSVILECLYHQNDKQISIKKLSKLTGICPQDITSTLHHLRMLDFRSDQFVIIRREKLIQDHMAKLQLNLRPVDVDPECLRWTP

Turning to `CCc1ccc(OCc2nnco2)c(S(=O)(=O)Nc2noc3cc(Cn4cc(CNC(=O)OC)cn4)cc(OC)c23)c1` [Syn. Ex. 127, methyl ((1-((3-((2-((1,3,4-oxadiazol-2-yl)methoxy)-5-ethylphenyl)sulfonamido)-4-methoxybenzo[d]isoxazol-6-yl)methyl)-1H-pyrazol-4-yl)methyl)carbamate], the inhibition at 1 µM amounted to 101% and the inhibition at 10 µM was 100%.

For the compound `C#CCOc1ccc(CC)cc1S(=O)(=O)Nc1noc2cc(Cn3cc(CNC(=O)OC)cn3)cc(OC)c12` [Syn. Ex. 128, methyl ((1-((3-((5-ethyl-2-(prop-2-yn-1-yloxy)phenyl)sulfonamido)-4-methoxybenzo[d]isoxazol-6-yl)methyl)-1H-pyrazol-4-yl)methyl)carbamate], the inhibition at 1 µM is 101% and the inhibition at 10 µM amounted to 100%.

Consider `COC(=O)NCc1cnn(Cc2cc(OC)c3c(NS(=O)(=O)c4cccc5cc(C)cnc45)noc3c2)c1` [Syn. Ex. 129, methyl ((1-((4-methoxy-3-((3-methylquinoline)-8-sulfonamido)benzo[d]isoxazol-6-yl)methyl)-1H-pyrazol-4-yl)methyl)carbamate], for which the “Average Kat6A % inhibition @ 1 μM” value stood at 102% and the “Average Kat6A % inhibition @ 10 μM” value came to 102%.

In the case of `COC(=O)NCc1cnn(Cc2cc(OC)c3c(NS(=O)(=O)c4cc(C)cc5cccnc45)noc3c2)c1` [Syn. Ex. 130, methyl ((1-((4-methoxy-3-((6-methylquinoline)-8-sulfonamido)benzo[d]isoxazol-6-yl)methyl)-1H-pyrazol-4-yl)methyl)carbamate], the “Average Kat6A % inhibition @ 1 μM” value is reported as 100% and the “Average Kat6A % inhibition @ 10 μM” value is on record as 102%.

For `COC(=O)NCc1cnn(Cc2cc(OC)c3c(NS(=O)(=O)c4cccc5c(C)ccnc45)noc3c2)c1` [Syn. Ex. 131, methyl ((1-((4-methoxy-3-((4-methylquinoline)-8-sulfonamido)benzo[d]isoxazol-6-yl)methyl)-1H-pyrazol-4-yl)methyl)carbamate], the “Average Kat6A % inhibition @ 1 μM” value is 99% and the “Average Kat6A % inhibition @ 10 μM” value came to 100%.

Turning to `COC(=O)NCc1cnn(Cc2cc3onc(NS(=O)(=O)c4cc(C)cc5cccnc45)c3c3c2CCCO3)c1` [Syn. Ex. 132, methyl ((1-((9-((6-methylquinoline)-8-sulfonamido)-3,4-dihydro-2H-chromeno[8,7-d]isoxazol-5-yl)methyl)-1H-pyrazol-4-yl)methyl)carbamate], the “Average Kat6A % inhibition @ 1 μM” value is recorded as 100% and the “Average Kat6A % inhibition @ 10 μM” value stood at 99%.

As to `COC(=O)NCc1cnn(Cc2cc3onc(NS(=O)(=O)c4ccccc4OC)c3c3c2CCCO3)c1` [Syn. Ex. 133, methyl ((1-((9-((2-methoxyphenyl)sulfonamido)-3,4-dihydro-2H-chromeno[8,7-d]isoxazol-5-yl)methyl)-1H-pyrazol-4-yl)methyl)carbamate], the inhibition at 1 µM is 100% and the inhibition at 10 µM worked out at 103%.

As to `COC(=O)NCc1cnn(Cc2cc3onc(NS(=O)(=O)c4ccccc4OC)c3c3c2CCO3)c1` [Syn. Ex. 134, methyl ((1-((8-((2-methoxyphenyl)sulfonamido)-2,3-dihydrobenzofuro[7,6-d]isoxazol-4-yl)methyl)-1H-pyrazol-4-yl)methyl)carbamate], the inhibition at 1 µM is 97% and the inhibition at 10 µM was determined as 101%.

As to `COC(=O)NCc1cnn(Cc2cc(OC)c3c(NS(=O)(=O)c4cc(C(F)F)ccc4OC)noc3c2)c1` [Syn. Ex. 135, methyl ((1-((3-((5-(difluoromethyl)-2-methoxyphenyl)sulfonamido)-4-methoxybenzo[d]isoxazol-6-yl)methyl)-1H-pyrazol-4-yl)methyl)carbamate], the inhibition at 1 µM was determined as 96% and the inhibition at 10 µM worked out at 97%.

Consider `CCOc1cc(C)ccc1S(=O)(=O)Nc1noc2cc(Cn3cc(CNC(=O)OC)cn3)cc(OC)c12` [Syn. Ex. 136, methyl ((1-((3-((2-ethoxy-4-methylphenyl)sulfonamido)-4-methoxybenzo[d]isoxazol-6-yl)methyl)-1H-pyrazol-4-yl)methyl)carbamate], for which the inhibition at 1 µM turned out to be 99% and the inhibition at 10 µM worked out at 99%.

For the compound `CCc1ccc(OC)c(S(=O)(=O)Nc2noc3cc(Cn4cc(CNC(=O)OC)cn4)c(OC)cc23)c1` [Syn. Ex. 137, methyl ((1-((3-((5-ethyl-2-methoxyphenyl)sulfonamido)-5-methoxybenzo[d]isoxazol-6-yl)methyl)-1H-pyrazol-4-yl)methyl)carbamate], the inhibition at 1 µM is 98% and the inhibition at 10 µM came out at 89%.

Turning to `COC(=O)NCc1cnn(Cc2cc3c4c(noc4c2)NS(=O)(=O)c2c(OC)cccc2OCCCCCO3)c1` [Syn. Ex. 138, methyl ((1-((14-methoxy-15,15-dioxido-6,7,8,9-tetrahydro-5H,16H-4,10,18-trioxa-15-thia-16,17-diazabenzo[11,12]cyclotetradeca[1,2,3-cd]inden-2-yl)methyl)-1H-pyrazol-4-yl)methyl)carbamate], the “Average Kat6A % inhibition @ 1 μM” value amounted to 111% and the “Average Kat6A % inhibition @ 10 μM” value was 114%.

On to `COC(=O)NCc1cnn(Cc2cc(OC)c3c(NS(=O)(=O)c4cc5c(cc4OC)CCCC5)noc3c2)c1` [Syn. Ex. 139, methyl ((1-((4-methoxy-3-((3-methoxy-5,6,7,8-tetrahydronaphthalene)-2-sulfonamido)benzo[d]isoxazol-6-yl)methyl)-1H-pyrazol-4-yl)methyl)carbamate], for which the “Average Kat6A % inhibition @ 1 μM” value was 119% and the “Average Kat6A % inhibition @ 10 μM” value turned out to be 114%.

Take `CCc1ccc(S(=O)(=O)Nc2noc3cc(Cn4cc(CNC(=O)OC)cn4)c4c(c23)OCCC4)c(OC)c1` [Syn. Ex. 140, methyl ((1-((9-((4-ethyl-2-methoxyphenyl)sulfonamido)-3,4-dihydro-2H-chromeno[8,7-d]isoxazol-5-yl)methyl)-1H-pyrazol-4-yl)methyl)carbamate]: the inhibition at 1 µM came out at 106% and the inhibition at 10 µM came out at 104%.

On to `CCc1ccc(OC)c(S(=O)(=O)Nc2noc3cc(Cn4cc(CNC(=O)OC)cn4)c(F)c(OC)c23)c1` [Syn. Ex. 141, methyl ((1-((3-((5-ethyl-2-methoxyphenyl)sulfonamido)-5-fluoro-4-methoxybenzo[d]isoxazol-6-yl)methyl)-1H-pyrazol-4-yl)methyl)carbamate], for which the inhibition at 1 µM was 104% and the inhibition at 10 µM is 91%.

With `CCOc1cc2c(NS(=O)(=O)c3cc(CC)ccc3OC)noc2cc1Cn1cc(CNC(=O)OC)cn1` [Syn. Ex. 142, methyl ((1-((5-ethoxy-3-((5-ethyl-2-methoxyphenyl)sulfonamido)benzo[d]isoxazol-6-yl)methyl)-1H-pyrazol-4-yl)methyl)carbamate], the inhibition at 1 µM is 110% and the inhibition at 10 µM came to 99%.

Turning to `C=C(F)C(=O)NCc1cnc(Oc2cc(OC)c3c(NS(=O)(=O)c4cc5c(cc4OC)CCC5)noc3c2)s1` [Syn. Ex. 143, 2-fluoro-N-((2-((4-methoxy-3-((6-methoxy-2,3-dihydro-1H-indene)-5-sulfonamido)benzo[d]isoxazol-6-yl)oxy)thiazol-5-yl)methyl)acrylamide], the “Average Kat6A % inhibition @ 1 μM” value came out at 101% and the “Average Kat6A % inhibition @ 10 μM” value was 99%.
